As a reminder, the IC50 is the point on the concentration scale where inhibition reaches its midpoint.

In patent US20170305922A1, “CARM1 INHIBITORS AND USES THEREOF” (Epizyme, Inc., priority 2014, published 2017) one finds IC50 data, which are given here for 42 compounds.

Molecules are shown by their SMILES.

For assay [1], the system named is asymmetric di-methyl PABP1 in RKO cells. Description: RKO methylation assay: In Cell Western (ICW) for asymmetric di-methyl PABP1 (PABP1me2a). The settings on record: Homo sapiens, RKO, 48 h, Cellular-based (PABP1me2a) ICW (In Cell Western) assay. In outline: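 In-cell western on compound-exposed RKO cells (48 hours): asymmetric di-methyl PABP1 detected by antibody at 800 nm, DNA content by DRAQ5 at 700 nm. Percent inhibition from signal ratios against DMSO (minimum) and 20 μM reference compound (maximum) wells; IC50 curves fitted from triplicates.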

The next assay has as its target T1, Human CARM1 (PRMT4) (Homo sapiens, UniProt Q86X55).
T1 construct: Flag-CARM1-His was eluted with 200 ug/ml FLAG peptide in buffer A; made in house; host or cells: HEK 293F cells infected with recombinant baculovirus (pFastBacMam)
T1 sequence (Q86X55 1-585 isoform Q86X55-1): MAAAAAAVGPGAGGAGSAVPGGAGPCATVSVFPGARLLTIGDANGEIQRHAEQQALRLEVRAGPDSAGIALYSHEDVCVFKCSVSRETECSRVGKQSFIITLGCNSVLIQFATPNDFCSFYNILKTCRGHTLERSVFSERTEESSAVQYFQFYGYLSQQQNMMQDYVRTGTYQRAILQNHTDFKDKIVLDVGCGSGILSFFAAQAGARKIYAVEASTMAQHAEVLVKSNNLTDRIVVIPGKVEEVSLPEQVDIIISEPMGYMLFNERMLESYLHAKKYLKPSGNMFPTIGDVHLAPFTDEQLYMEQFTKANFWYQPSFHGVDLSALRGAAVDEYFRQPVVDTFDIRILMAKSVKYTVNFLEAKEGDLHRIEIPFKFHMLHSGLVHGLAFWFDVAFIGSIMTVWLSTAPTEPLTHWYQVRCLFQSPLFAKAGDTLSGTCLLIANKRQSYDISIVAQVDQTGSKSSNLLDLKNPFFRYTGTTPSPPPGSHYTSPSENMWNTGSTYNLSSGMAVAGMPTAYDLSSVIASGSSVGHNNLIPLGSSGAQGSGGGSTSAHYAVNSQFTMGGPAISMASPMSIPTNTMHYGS
Kind of assay: CARM1 enzyme assay on peptide substrates (3H-SAM Flashplate). Particulars: Biochemical assay; CARM1 0.25 nM, 3H-SAM 30 nM, peptide 250 nM; read-out: Biochem IC50.

In the case of `CNC[C@@H](O)COc1ccc(Cl)c(-c2nc(-c3c(C)noc3C)c(C)c(N3CC4(CCC(F)(F)CC4)C3)n2)c1` [Example 67], the figures for the IC50 (in assay [1]; on Human CARM1 (PRMT4)) were 71 nM and 5 nM, respectively.

Consider `CNC[C@@H](O)COc1ccc(Cl)c(-c2nc(-c3c(C)noc3C)c(C)c(N3CC4(CC=C(F)CC4)C3)n2)c1` [Example 68], for which the IC50 in assay [1] stood at 144 nM; at Human CARM1 (PRMT4), 3.9 nM.

As for `CNC[C@@H](O)COc1ccc(Cl)c(-c2nc(-c3c(C)noc3C)c(C)c(N3Cc4ccc(C)nc4C3)n2)c1` [Example 69], the IC50 in assay [1] stood at 22 nM; at Human CARM1 (PRMT4), 1.2 nM.

Turning to `CNC[C@@H](O)COc1ccc(Cl)c(-c2nc(-c3c(C)noc3C)c(C)c(N3Cc4cnc(OC)nc4C3)n2)c1` [Example 70], the IC50 in assay [1] is 19 nM; on Human CARM1 (PRMT4), 3.2 nM.

In the case of `CNC[C@@H](O)COc1ccc(Cl)c(-c2nc(-c3c(C)noc3C)c(C)c(N3C[C@]4(C)CN(CC(F)F)C[C@]4(C)C3)n2)c1` [Example 71], the results for the IC50 (in assay [1]; at Human CARM1 (PRMT4)) were 221 nM and 5.6 nM, respectively.

Regarding `CCOc1ncc2c(n1)CN(c1nc(-c3cc(OC[C@H](O)CNC)ccc3Cl)nc(-c3c(C)noc3C)c1C)C2` [Example 72], the results for the IC50 (in assay [1]; at Human CARM1 (PRMT4)) were 12 nM and 2.9 nM, respectively.

In the case of `CNC[C@@H](O)COc1ccc(Cl)c(-c2nc(-c3c(C)noc3C)c(C)c(N3Cc4cc(=O)n(C(C)C)cc4C3)n2)c1` [Example 73], the IC50 in assay [1] was determined as 422 nM; at Human CARM1 (PRMT4), 6.1 nM.

Take `CNC[C@@H](O)COc1ccc(Cl)c(-c2nc(-c3c(Cl)cnn3C)c(C)c(N3CC4(CCN(C(=O)OC)CC4)C3)n2)c1` [Example 74]: the IC50 came to 207 nM in assay [1] and 9.7 nM at Human CARM1 (PRMT4).

Consider `CCn1ncc(Cl)c1-c1nc(-c2cc(OC[C@H](O)CNC)ccc2Cl)nc(N2CC3(CCN(C(=O)OC)CC3)C2)c1C` [Example 75], for which the IC50 was determined as 396 nM in assay [1] and 12.5 nM at Human CARM1 (PRMT4).

`CCn1ncc(Cl)c1-c1nc(-c2cc(OC[C@H](O)CNC)ccc2Cl)nc(N2Cc3cncnc3C2)c1C` [Example 76]: the IC50 was found to be 268 nM in assay [1] and 4.8 nM on Human CARM1 (PRMT4).

Consider `CCn1ncc(Cl)c1-c1nc(-c2cc(OC[C@H](O)CNC)ccc2Cl)nc(N2Cc3cccnc3C2)c1C` [Example 77], for which the IC50 is 293 nM in assay [1] and 3.7 nM on Human CARM1 (PRMT4).

Consider `CNC[C@@H](O)COc1ccc(Cl)c(-c2nc(-c3c(C)noc3C)c(C)c(N3CC4(C3)CC(F)(F)C4)n2)c1` [Example 78], for which the IC50 was 112 nM in assay [1] and 5.6 nM on Human CARM1 (PRMT4).

Regarding `CNC[C@@H](O)COc1ccc(Cl)c(-c2nc(-c3c(C)noc3C)c(C)c(N3CC4(CC(OC)C4)C3)n2)c1` [Example 79], the IC50 in assay [1] was 60 nM; on Human CARM1 (PRMT4) it was 9.3 nM.

For `CNC[C@@H](O)COc1ccc(Cl)c(-c2nc(-c3c(C)cnn3C)c(C)c(N3CC4(CCN(C(=O)OC)CC4)C3)n2)c1` [Example 80], the IC50 in assay [1] amounted to 182 nM; on Human CARM1 (PRMT4), 8.8 nM.

Consider `CNC[C@@H](O)COc1ccc(Cl)c(-c2nc(-c3c(C)cnn3C)c(C)c(N3Cc4cncnc4C3)n2)c1` [Example 81], for which the IC50 is 112 nM in assay [1] and 3.8 nM at Human CARM1 (PRMT4).

As to `CNC[C@@H](O)COc1ccc(Cl)c(-c2nc(-c3c(C)cnn3C)c(C)c(N3Cc4cccnc4C3)n2)c1` [Example 82], the half-inhibitory concentration (IC50) was found to be 56 nM in assay [1] and 2.1 nM at Human CARM1 (PRMT4).

With `CNC[C@@H](O)COc1ccc(Cl)c(-c2nc(-c3c(C)noc3C)c(C)c(N3CC4(CCC(SC)CC4)C3)n2)c1` [Example 83], the figures for the IC50 (in assay [1]; on Human CARM1 (PRMT4)) were 74 nM and 3.3 nM, respectively.

As to `CNC[C@@H](O)COc1ccc(Cl)c(-c2nc(-c3c(C)c(Cl)nn3C)c(C)c(N3Cc4cccnc4C3)n2)c1` [Example 84], the IC50 in assay [1] came out at 28 nM; on Human CARM1 (PRMT4) it was 1.6 nM.

Turning to `CNC[C@@H](O)COc1cccc(-c2nc(-c3c(C)c(Cl)nn3C)c(C)c(N3Cc4cccnc4C3)n2)c1` [Example 85], the IC50 in assay [1] came out at 83 nM; at Human CARM1 (PRMT4), 1.1 nM.

`CNC[C@@H](O)COc1ccc(Cl)c(-c2nc(C#CC3CCN(C(=O)OC)CC3)c(C)c(-c3c(C)noc3C)n2)c1` [Example 86]: the IC50 came out at 283 nM in assay [1] and 97 nM at Human CARM1 (PRMT4).

In the case of `CCn1ncc(C)c1-c1nc(-c2cc(OC[C@H](O)CNC)ccc2Cl)nc(N2CC3(CCN(C(=O)OC)CC3)C2)c1C` [Example 87], the IC50 in assay [1] is 205 nM; at Human CARM1 (PRMT4), 9 nM.

With `CCn1ncc(C)c1-c1nc(-c2cc(OC[C@H](O)CNC)ccc2Cl)nc(N2Cc3cncnc3C2)c1C` [Example 88], the IC50 was 222 nM in assay [1] and 4.6 nM on Human CARM1 (PRMT4).

As to `CCn1ncc(C)c1-c1nc(-c2cc(OC[C@H](O)CNC)ccc2Cl)nc(N2Cc3cccnc3C2)c1C` [Example 89], the figures for the IC50 (in assay [1]; at Human CARM1 (PRMT4)) were 165 nM and 3.7 nM, respectively.

Turning to `CNC[C@@H](O)COc1ccc(Cl)c(-c2nc(-c3c(C)noc3C)c(C)c(N3Cc4nc(OC)nc(OC)c4C3)n2)c1` [Example 90], the results for the IC50 (in assay [1]; on Human CARM1 (PRMT4)) were 32 nM and 2.2 nM, respectively.

`CNC[C@@H](O)COc1ccc(Cl)c(-c2nc(-c3c(C)noc3C)c(C)c(N3CC4(CC(C(=O)N(C)C)C4)C3)n2)c1` [Example 91]: the IC50 in assay [1] was determined as 92 nM; at Human CARM1 (PRMT4), 5.5 nM.

`CNC[C@@H](O)COc1ccc(Cl)c(-c2nc(-c3c(C)noc3C)c(C)c(N3CC4(CCC(C#N)CC4)C3)n2)c1` [Example 92]: the IC50 in assay [1] is 64 nM; at Human CARM1 (PRMT4), 5.2 nM.

Regarding `CNC[C@@H](O)COc1ccc(Cl)c(-c2nc(-c3c(C)noc3C)c(C)c(N3Cc4ncnc(OC)c4C3)n2)c1` [Example 93], the IC50 in assay [1] was 33 nM; on Human CARM1 (PRMT4), 2.3 nM.

On to `CNC[C@@H](O)COc1ccc(Cl)c(-c2nc(-c3c(C)noc3C)c(C)c(N3Cc4ncnc(OCCOC)c4C3)n2)c1` [Example 94], for which the IC50 in assay [1] amounted to 44 nM; at Human CARM1 (PRMT4), 2.3 nM.

In the case of `CNC[C@@H](O)COc1ccc(Cl)c(-c2nc(/C=C(\OC)C3CCN(C(=O)OC)CC3)c(C)c(-c3c(C)noc3C)n2)c1` [Example 95], the figures for the IC50 (in assay [1]; on Human CARM1 (PRMT4)) were 995 nM and 11.2 nM, respectively.

For the compound `CNC[C@@H](O)COc1ccc(Cl)c(-c2nc(-c3c(C)noc3C)c(C)c(N3CC4(C3)CN(C3CC3)C4)n2)c1` [Example 96], the IC50 in assay [1] was 54 nM; at Human CARM1 (PRMT4) it was 2.1 nM.

Take `CNC[C@@H](O)COc1ccc(Cl)c(-c2nc(-c3c(C)noc3C)c(C)c(N3CC4(CCC(S(C)(=O)=O)CC4)C3)n2)c1` [Example 97]: the IC50 in assay [1] was 394 nM; on Human CARM1 (PRMT4), 10.9 nM.

Regarding `CNC[C@@H](O)COc1ccc(Cl)c(-c2nc(-c3c(C)noc3C)c(C)c(N3CC4(CCN4C(=O)OC)C3)n2)c1` [Example 98], the IC50 in assay [1] came out at 99 nM; on Human CARM1 (PRMT4), 8.4 nM.

Take `CNC[C@@H](O)COc1ccc(Cl)c(-c2nc(-c3c(C)noc3C)c(C)c(N3CC4(CN(CC(F)(F)F)C4)C3)n2)c1` [Example 99]: the figures for the IC50 (in assay [1]; on Human CARM1 (PRMT4)) were 39 nM and 11 nM, respectively.

In the case of `CNC[C@@H](O)COc1ccc(Cl)c(-c2nc(-c3c(C)noc3C)c(C)c(N3CC4(CCN4CC(F)(F)F)C3)n2)c1` [Example 100], the results for the IC50 (in assay [1]; on Human CARM1 (PRMT4)) were 68 nM and 11.3 nM, respectively.

For the compound `CCc1cc2c(c(C)n1)CN(c1nc(-c3cc(OC[C@H](O)CNC)ccc3Cl)nc(-c3c(C)noc3C)c1C)C2` [Example 101], the figures for the IC50 (in assay [1]; at Human CARM1 (PRMT4)) were 38 nM and 4.4 nM, respectively.

For the compound `CNC[C@@H](O)COc1ccc(Cl)c(-c2nc(-c3c(C)noc3C)c(C)c(N3Cc4cc(C)nc(C)c4C3)n2)c1` [Example 102], the values for the IC50 (in assay [1]; at Human CARM1 (PRMT4)) were 27 nM and 4.5 nM, respectively.

For `CNC[C@@H](O)COc1ccc(Cl)c(-c2nc(-c3cnn(C4CC4)c3)c(C)c(-c3c(C)noc3C)n2)c1` [Example 103], the IC50 was determined as 130 nM in assay [1] and 8.1 nM on Human CARM1 (PRMT4).

Regarding `CNC[C@@H](O)COc1ccc(Cl)c(-c2nc(-c3c(C)noc3C)c(C)c(N3C[C@@H]4C[C@H]3CN4C(=O)OC)n2)c1` [Example 104], the IC50 worked out at 368 nM in assay [1] and 10.8 nM on Human CARM1 (PRMT4).

Consider `CNC[C@@H](O)COc1ccc(Cl)c(-c2nc(-c3c(C)noc3C)c(C)c(N3Cc4cnc(N5CCC5)nc4C3)n2)c1` [Example 105], for which the values for the IC50 (in assay [1]; at Human CARM1 (PRMT4)) were 11 nM and 3.2 nM, respectively.

For `CNC[C@@H](O)COc1ccc(Cl)c(-c2nc(-c3c(C)noc3C)c(C)c(N3Cc4cnc(OCCOC)nc4C3)n2)c1` [Example 106], the IC50 in assay [1] was found to be 25 nM; at Human CARM1 (PRMT4), 5.5 nM.

Turning to `CNC[C@@H](O)COc1ccc(Cl)c(-c2nc(CCC3CCN(C(=O)OC)CC3)c(C)c(-c3c(C)noc3C)n2)c1` [Example 107], the IC50 was determined as 176 nM in assay [1] and 11.2 nM at Human CARM1 (PRMT4).

For `CNC[C@@H](O)COc1ccc(Cl)c(-c2nc(-c3c(C)noc3C)c(C)c(N3CC4(CCN4CC(F)F)C3)n2)c1` [Example 108], the IC50 in assay [1] turned out to be 164 nM; on Human CARM1 (PRMT4), 18.3 nM.
